Each compound was assayed against T1, TYK2-JH2 (Homo sapiens, UniProt P29597) (assay: TYK2-JH2 HTRF binding assay (ligand efficiency)). Details: calculated from binding-assay IC50 (Equation 1).
T1 construct: TYK JH2 enzyme mix (ChemPartner: CP20210818A-BV); purchased ChemPartner CP20210818A-BV
Protocol: The following example describes the TYK2-JH2 HTRF binding assay used to determine the ligand efficiency of the TYK2 inhibitors.
To calculate ligand efficiency, Equation 1 is applied: […]
in which IC50 comes from the binding assay used to determine compound potency.
TYK JH2 enzyme mix (ChemPartner: CP20210818A-BV), tracer (ChemPartner: CP-0029472-051) and mAb Anti-6HIS Tb cryptate Gold (Cisbio: Cat No. 61HI2TLA) mix were prepared in assay buffer (10 mM MgCl2, 20 mM HEPES pH 7.5, 0.01% Triton X-100, 1 mM DTT). Compounds diluted in DMSO (Final Concentrations 0.1 to 0.000005 [μM]) and enzyme mix (0.5 nM Final Concentration) were added to 384 well plates, briefly centrifuged and incubated at room temperature for 10 minutes. After incubation, tracer mix (Tracer-35 nM final concentration); (MAb Anti-6HIS Tb cryptate Gold-0.5× final)) was added, briefly centrifuged then incubate at room temperature 60 minutes. After incubation, plates were read by Envision TR-FRET (Ex340/Em495/520) protocol (PerkinElmer-Envision 2104 multilabel plate reader).

T1 sequence (P29597 589-875 limits assumed): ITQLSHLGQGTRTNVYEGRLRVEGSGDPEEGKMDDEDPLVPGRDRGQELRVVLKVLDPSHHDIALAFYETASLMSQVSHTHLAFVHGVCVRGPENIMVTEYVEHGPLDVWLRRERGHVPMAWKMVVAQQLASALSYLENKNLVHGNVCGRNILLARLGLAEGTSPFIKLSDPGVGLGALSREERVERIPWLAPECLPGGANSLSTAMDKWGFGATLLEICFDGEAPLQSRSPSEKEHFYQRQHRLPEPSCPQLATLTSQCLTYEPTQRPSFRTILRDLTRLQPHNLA

Row | SMILES | Ligand Efficiency
1 | CC1(Nc2ccc(Nc3cc(Nc4ncccc4S(C)(=N)=O)ncn3)nc2)COC1 (centres unmarked) [Compound 73, N^4-(5-((3-methyloxetan-3-yl)amino)pyridin-2-yl)-N^6-(3-(S-methylsulfonimidoyl)pyridin-2-yl)pyrimidine-4,6-diamine] | ††† (†††: >0.39)
2 | CC1(Nc2cnc(Nc3cc(Nc4ncccc4S(C)(=O)=O)ncn3)cn2)COC1 [Compound 74, N^4-(5-(3-methyloxetan-3-ylamino)pyrazin-2-yl)-N^6-(3-(methylsulfonyl)pyridin-2-yl)pyrimidine-4,6-diamine] | ††† (†††: >0.39)
3 | CC(c1ccc(Nc2ncnc(Nc3ncccc3S(C)(=O)=O)c2F)nc1)N1CC2(COC2)C1 (centres unmarked) [Compound 75, N^4-(5-(1-(2-oxa-6-azaspiro[3.3]heptan-6-yl)ethyl)pyridin-2-yl)-5-fluoro-N^6-(3-(methylsulfonyl)pyridin-2-yl)pyrimidine-4,6-diamine] | † (†: < 0.37)
4 | COc1ccnc(Nc2cc(Nc3ccc(C(C)N4CC5(COC5)C4)cn3)ncn2)c1S(C)(=O)=O (centres unmarked) [Compound 76, N^4-(5-(1-(2-oxa-6-azaspiro[3.3]heptan-6-yl)ethyl)pyridin-2-yl)-N^6-(4-methoxy-3-(methylsulfonyl)pyridin-2-yl)pyrimidine-4,6-diamine] | † (†: < 0.37)
5 | Cc1cc(Nc2cc(Nc3ncccc3S(C)(=O)=O)ncn2)nnc1C(C)N1CC2(COC2)C1 (centres unmarked) [Compound 77, N^4-(6-(1-(2-oxa-6-azaspiro[3.3]heptan-6-yl)ethyl)-5-methylpyridazin-3-yl)-N^6-(3-(methylsulfonyl)pyridin-2-yl)pyrimidine-4,6-diamine] | †† (††: 0.37-0.39)
6 | CC(c1ccc(Nc2cc(Nc3ncc(C4COC4)cc3S(C)(=O)=O)ncn2)nc1)N1CC2(COC2)C1 (centres unmarked) [Compound 78, N^4-(5-(1-(2-oxa-6-azaspiro[3.3]heptan-6-yl)ethyl)pyridin-2-yl)-N^6-(3-(methylsulfonyl)-5-(oxetan-3-yl)pyridin-2-yl)pyrimidine-4,6-diamine] | † (†: < 0.37)
7 | CS(=O)(=O)c1ccccc1Nc1cc(Nc2ccc(C(=O)NC3COC3)cn2)ncn1 [Compound 79, 6-((6-((2-(methylsulfonyl)phenyl)amino)pyrimidin-4-yl)amino)-N-(oxetan-3-yl)nicotinamide] | †† (††: 0.37-0.39)
8 | CS(=O)(=O)c1ccccc1Nc1cc(Nc2ccc(NC3COC3)cn2)ncn1 [Compound 80, N^4-(2-(methylsulfonyl)phenyl)-N^6-(5-(oxetan-3-ylamino)pyridin-2-yl) pyrimidine-4,6-diamine] | † (†: < 0.37)
